Results taken from US6703413B2 (Rhode Island Hospital, priority 1999, dated 2004).
Like-named read-outs stand apart in the source and are kept apart here.

Columns and labels:
[1] = system: human ovarian tumor cells; assay: Growth of established tumor cell colonies in vitro; assay type: cell-based; conditions: 24-hour exposure to 50 μM
Experimental: Parallel studies were carried out to assess whether disruption of cell adhesion played a role in the cytotoxic activity.

ovarian tumor cells = assay: DNA fragmentation, agarose-gel electrophoresis; assay type: cell-based, human; conditions: 50 μM
NIH-3T3 cells = assay: Phosphotidylserine externalization, Annexin-V FITC binding; assay type: cell-based, murine; conditions: NIH-3T3, 24 h exposure, non-significant
Experimental: Three×10^5 cells were seeded in plastic tissue culture flasks. […] Control cultures received an appropriate volume of Kollidine-17P. After an additional 24 h, cells were harvested and phosphotidylserine externalization determined by assessing Annexin-V FITC binding using cytofluorometric techniques. Each bar represents the mean±SE of four determinations. ** p≦0.01, *** p0.001
Cell membrane phosphotidylserine externalization, as a reflection of the potential induction of apoptosis, was assessed by flow cytometry methods using the ApoAlert® Annexin-V/FITC assay kit. Briefly, 1×10^6 cells were incubated for 24 h in tissue culture medium containing serum. […] Control cultures received 5% Kollidon 17 PF alone. Twenty-four hours later, all cells were harvested by trypsinization. The harvested cells were resuspended in 200 μl of binding buffer and then incubated for 5-15 min in a solution containing 1 μg/ml Annexin-V FITC at room temperature in the dark. The cells were then analyzed to quantitate Annexin-V binding by cytofluorometric techniques that utilized FACScan using the ModFit LT program with statistical analysis as described above.

[2] = system: NIH-3T3 murine fibroblasts; assay: Cell cycle distribution and sub-G0/G1 DNA debris, flow cytometry; assay type: cell-based; conditions: NIH-3T3, 48 h
Experimental: (§1) Three×10^5 cells were seeded in plastic tissue culture flasks. […] Control cultures received an appropriate volume of Kollidine-17P. […] The percentage of DNA debris in the sub-G0/G1 region was assessed using cytofluorometric techniques. Each bar represents the mean (±SE) of three determinations. ** p≦0.01, *** p≦0.001, **** p≦0.0001
(§2) For flow cytometry studies, 1×10^6 PA-1, SKOV-3, or NIH-3T3 cells were incubated for 24 h in appropriate media containing serum. […] Control cultures for each cell line were incubated in media containing 40 μl of 5% Kollidon 17 PF alone. Forty-eight hours later, all cells were harvested by trypsinization and prepared for cytofluorometric analysis by standard methods. For example, harvested cells were resuspended in ice cold phosphate-buffered saline at a final cell density of 2×10^6 cells/ml. The cells then were stained for 30 min at room temperature in the dark with a solution of 0.05 mg/ml propidium iodide, 0.6% Igepal, and 1% sodium citrate. Flow cytometry was performed by FACScan (Becton Dickinson, Plymouth, England) using the ModFit LT program (Becton Dickinson). Statistical analysis was performed with the Kruskal Wallis non-parametric ANOVA test followed by Dunn's multiple comparisons test using Instat.
(§3) Three×10^5 cells were seeded in plastic tissue culture flasks. […] Control cultures received an appropriate volume of Kollidine-17P. After an additional 48 h, cells were harvested, stained with propidium iodide, and cell cycle distribution assessed using cytofluorometric techniques. Each value represents the percentage of cells in the noted cell cycle phases and is the mean±SEM of three determinations.

[3] = system: PA-1 human ovarian tumor cells; assay: as above; assay type: cell-based; conditions: for Cell Cycle Distribution, G0G1 / Cell Cycle Distribution, G2/M / Cell Cycle Distribution, S: PA1, 48 h
Experimental: as §1, §2, §3

[4] = system: SKOV-3 human ovarian tumor cells; assay: as above; assay type: cell-based; conditions: for Cell Cycle Distribution, G0G1 / Cell Cycle Distribution, G2/M / Cell Cycle Distribution, S: SKOV3, 48 h
Experimental: as §1, §2, §3

[5] = system: HL-60 human promyelocytic cell line; assay: Apoptosis induction in non-adherent cancer cells; assay type: cell-based
H-596 lung tumor cells = assay: Cell growth inhibition, 3 d exposure, cell counting; assay type: cell-based, human
Experimental: (§4) One ml of this cell suspension was added to each well of a 12 well cell culture plate that contained 3 ml of appropriate media plus serum. […] Control wells received 40 μl of 5% Kollidon 17 PF alone. Seventy-two hours later, all cells were harvested by trypsinization and cell number determined electronically using a Coulter Model Z1 particle counter (Coulter Corp., Miami, Fla.) to assess cell growth inhibition. Each experiment was performed in duplicate and repeated a minimum of three times.
(§5) Cells were seeded at a density of 1-5×10^4 cells in each well of a 6 well tissue culture flask. […] After three days, cells were harvested by trypsinization and cell number determined electronically. Cell growth inhibition was determined by comparison to non-Taurolidine exposed control cultures. The IC50 was calculated as the concentration required to inhibit cell number by 50%.

[6] = system: DU-145 prostate tumor cells; assay: as above; assay type: cell-based, human
Experimental: as §4, §5

HCT-8 colon tumor cells = assay: as above; assay type: cell-based, human
Experimental: as §4, §5

HCT-15 colon tumor cells = assay: as above; assay type: cell-based, human
Experimental: as §4, §5

[7] = Taurolidine-induced toxicity, 3 d i.p. bolus injection regimen; assay type: in vivo; conditions: for mortality (%): i.p., 3 consecutive days
Experimental: Control animals received 1 ml injections of 5% Kollidon 17 PF alone. Animals were examined daily and body weight recorded twice weekly. A reduction in body weight of greater than 10% was considered significant. The maximally tolerated dose (MTD) was considered to be the dose which produced ˜10% mortality.
During the injection regimen, and daily thereafter for 30 d, mice were weighed and examined. Experiments were repeated a minimum of three times and mortality and weight loss data pooled.

SMILES: O=S1(=O)CCN(CN2CCS(=O)(=O)NC2)CN1 [Taurolidine, Bis-(1,1-dioxoperhydro-1,2,4-thiadiazinyl-4)methane]
- cytotoxic effect against growth of established tumor cells [1]: significant cytotoxic effect
- DNA fragmentation (ovarian tumor cells): overt DNA fragmentation
- increase in Annexin-V binding (NIH-3T3 cells): ~5%
- Cell Cycle Distribution, G0G1 ([2]; 25 μM): 42.5 ± 9.6%
- Cell Cycle Distribution, G2/M ([2]; 25 μM): 13.0 ± 4.0%
- Cell Cycle Distribution, S ([2]; 25 μM): 44.9 ± 5.6%
- Cell Cycle Distribution, G0G1 ([2]; 50 μM): 33.9 ± 10.2%
- Cell Cycle Distribution, G2/M ([2]; 50 μM): 21.8 ± 4.6%
- Cell Cycle Distribution, S ([2]; 50 μM): 44.3 ± 5.9%
- Cell Cycle Distribution, G0G1 ([2]; 100 μM): 25.8 ± 1.7%
- Cell Cycle Distribution, G2/M ([2]; 100 μM): 11.0 ± 11.0%
- Cell Cycle Distribution, S ([2]; 100 μM): 63.2 ± 9.8%
- DNA debris in the sub-G0/G1 region ([2]; 25-100 μM): did not significantly affect the appearance of DNA debris
- Cell Cycle Distribution, G0G1 ([3]; 25 μM): 28.4 ± 0.5%
- Cell Cycle Distribution, G2/M ([3]; 25 μM): 24.7 ± 0.9%
- Cell Cycle Distribution, S ([3]; 25 μM): 46.8 ± 0.6%
- Cell Cycle Distribution, G0G1 ([3]; 50 μM): 23.7 ± 2.2%
- Cell Cycle Distribution, G0G1 ([3]; 100 μM): 28.4 ± 5.6%
- Cell Cycle Distribution, G2/M ([3]; 100 μM): 27.2 ± 17.9%
- Cell Cycle Distribution, S ([3]; 100 μM): 44.5 ± 23.5%
- DNA debris in the sub-G0/G1 region ([3]; PA-1, 48 h, 25-100 μM): appearance of DNA debris in the sub-G0G1 region
- Cell Cycle Distribution, G0G1 ([4]; 25 μM): 45.8 ± 2.7%
- Cell Cycle Distribution, G2/M ([4]; 25 μM): 12.3 ± 3.1%
- Cell Cycle Distribution, S ([4]; 25 μM): 41.9 ± 4.2%
- Cell Cycle Distribution, G0G1 ([4]; 50 μM): 30.7 ± 9.4%
- Cell Cycle Distribution, G2/M ([4]; 50 μM): 30.3 ± 10.5%
- Cell Cycle Distribution, S ([4]; 50 μM): 45.5 ± 12.4%
- Cell Cycle Distribution, G0G1 ([4]; 100 μM): 19.9 ± 6.1%
- Cell Cycle Distribution, G2/M ([4]; 100 μM): 25.9 ± 7.8%
- Cell Cycle Distribution, S ([4]; 100 μM): 54.2 ± 8.6%
- DNA debris in the sub-G0/G1 region ([4]; SKOV-3, 48 h, 25-100 μM): appearance of DNA debris in the sub-G0G1 region
- exposure time that induces apoptosis [5]: 90 min
- IC50 (H-596 lung tumor cells): 34.2 µM
- IC50 (H-596 lung tumor cells; Homo sapiens, NCI-H596, 72 h): ~35 µM
- IC50 [6]: 9.8 ± 0.8 µM
- IC50 ([6]; Homo sapiens, DU-145, 72 h): ~10 µM
- IC50 (HCT-8 colon tumor cells): 11.5 ± 0.5 µM
- IC50 (HCT-8 colon tumor cells; Homo sapiens, HCT-8, 72 h): ~10 µM
- IC50 (HCT-15 colon tumor cells): 9.6 ± 3 µM
- IC50 (HCT-15 colon tumor cells; Homo sapiens, HCT-15, 72 h): ~10 µM
- mortality (%) ([7]; 10 mg/mouse/inj): 6%
- mortality (%) ([7]; 20 mg/mouse/inj): 13%
- mortality (%) ([7]; 25 mg/mouse/inj): 47%
- mortality (%) ([7]; 30 mg/mouse/inj): 100%
- tolerability ([7]; daily doses below 15 mg/mouse (~650 mg/kg), 3 d i.p. regimen): well-tolerated
- MTD ([7]; mouse, in vivo, ip): 20 mg/inj
- maximally tolerated dose (MTD) ([7]; mouse, in vivo, ip): 20 mg/mouse
